Results from patent US9322066B2, “Predictors for cancer treatment” (priority 2011, dated 2016).

Tested on: relapsed or refractory, rituximab-naive or -sensitive follicular B-cell NHL
Assay: Overall response rate (CR+CRu+PR), Vc-R vs rituximab study, by biomarker
Assay type: in vivo, human
Settings: Biomarker positive (PSMB1 P11A heterozygote and CD68 Low)
Description: Non-Hodgkin lymphoma (NHL) encompasses several unique malignant lymphoid disease entities that vary in clinical behavior, morphologic appearance, immunologic, and molecular phenotype. […] A randomized, open-label, active-controlled, multicenter, multinational, prospective study to compare the efficacy and safety of the combination of bortezomib and rituximab (Vc-R) to single-agent rituximab in subjects who have relapsed or refractory, rituximab-naive or -sensitive follicular B-cell NHL was performed.
Subjects were centrally randomized to Treatment Groups A (Vc-R) or B (rituximab) in a 1:1 ratio taking into account the following stratification factors: • Follicular Lymphoma International Prognostic Index (FLIPI) score (low [0 or 1 factor], intermediate [2 factors], high [≧3 factors]); • Prior rituximab therapy (yes, no); • Time since last dose of anti-lymphoma therapy (≦1 year, >1 year); • Region (United States/Canada, European Union, Rest of World). […]
Comparison of the response rates between the treatment groups was conducted using the Fishers Exact Test. Duration of response, time to response, and time to clinical relapse were analyzed descriptively, where appropriate, and the biomarker subset was compared (if appropriate, determined as per the initial analysis) to the overall clinical cohort, by treatment group and overall. […]

rituximab was tested, and the overall response rate was 47.5%.
